Tests used:
HCMV = assay: Anti-HCMV cytopathogenicity test; format: cell-based, human cytomegalovirus; conditions: for SI HCMV (selectivity index): CC50 (NHDF)/EC50 (HCMV); for EC50: Human betaherpesvirus 5, 144 h, HCMV-infected NHDF cells, M.O.I. 0.001-0.002, 6 days, 50% inhibition of cytopathic effect
Procedure: (§1) Anti-HCMV (Anti-Human Cytomegalovirus) Cytopathogenicity Tests The test compounds are employed as 50 millimolar (mM) solutions in dimethyl sulphoxide (DMSO). Ganciclovir®, Foscarnet® and Cidofovir® are used as reference compounds. After addition of in each case 2 μl of the 50, 5, 0.5 and 0.05 mM DMSO stock solutions to 98 μl portions of cell culture medium in row […] for duplicate determinations, 1:2 dilutions are carried out with 50 μl portions of medium up to row 11 of the 96-well plate. The wells in rows 1 and 12 each contain 50 μl of medium. Then 150 μl portions of a suspension of 1×10^4 cells (human prepuce fibroblasts [NHDF]) are pipetted into each of the wells (row 1=cell control) and, in rows 2-12, a mixture of HCMV-infected and uninfected NHDF cells (M.O.I.=0.001-0.002), i.e. 1-2 infected cells per 1000 uninfected cells. Row 12 (without substance) serves as virus control. The final test concentrations are 250-0.0005 μM. The plates are incubated at 37° C./5% CO2 for 6 days, i.e. until all the cells are infected in the virus controls (100% cytopathogenic effect [CPE]). The wells are then fixed and stained by adding a mixture of formalin and Giemsa's dye (30 minutes), washed with double-distilled water and dried in a drying oven at 50° C. The plates are then assessed visually using an overhead microscope (Plaque Multiplier from Technomara). The following data can be acquired from the test plates: • CC50 (NHDF)=substance concentration in μM at which no visible cytostatic effects on the cells are evident by comparison with the untreated cell control; • EC50 (HCMV)=substance concentration in μM which inhibits the CPE (cytopathic effect) by 50% compared with the untreated virus control; • SI (selectivity index)=CC50 (NHDF)/EC50 (HCMV).

[1] = Cytostatic effect on NHDF cells in the anti-HCMV cytopathogenicity test; format: cell-based; conditions: NHDF cells (human prepuce fibroblasts), 6 days incubation, visual assessment, concentration at which no visible cytostatic effects are evident
Procedure: as §1

## COc1ccc(C(F)(F)F)cc1N1C(N2CCn3c(cc4c(C)cccc43)C2)=Nc2c(F)cccc2C1CC(=O)O (single isomer, unassigned) [Example 2]
HCMV
  SI HCMV (selectivity index): 233
  EC50: 0.09 µM
[1]
  CC50 at 6 days: 21 µM

## COc1ccc(C(F)(F)F)cc1N1C(N2CCn3c(cc4c(F)cccc43)C2)=Nc2c(F)cccc2C1CC(=O)O (single isomer, unassigned) [Example 4]
HCMV
  SI HCMV (selectivity index): 117
  EC50: 0.12 µM
[1]
  CC50 at 6 days: 14 µM

## COc1ccc(C(F)(F)F)cc1N1C(N2CCN3c4ccc(F)cc4CC3C2)=Nc2c(F)cccc2C1CC(=O)O (single isomer, unassigned) [Example 16, {8-Fluoro-2-(8-fluoro-3,4,10,10a-tetrahydropyrazino[1,2-a]indol-2(1H)-yl)-3-[2-methoxy-5-(trifluoromethyl)phenyl]-3,4-dihydroquinazolin-4-yl}acetic acid]
HCMV
  SI HCMV (selectivity index): 1050
  EC50: 0.02 µM
[1]
  CC50 at 6 days: 21 µM

## COc1ccc(C(F)(F)F)cc1N1C(N2CCN3c4cccc(C)c4CC3C2)=Nc2c(F)cccc2C1CC(=O)O (stereo not drawn) [Example 9, [8-Fluoro-3-[2-methoxy-5-(trifluoromethyl)phenyl]-2-(9-methyl-3,4,10,10a-tetra-hydropyrazino[1,2-a]indol-2(1H)-yl)-3,4-dihydroquinazolin-4-yl]acetic acid]
HCMV
  SI HCMV (selectivity index): 600
  EC50: 0.04 µM
[1]
  CC50 at 6 days: 24 µM

Reference: patent US8343981B2, “Heterocyclyl-substituted dihydroquinazolines and their use as antiviral agents” (AiCuris GmbH & Co. KG, priority 2003, dated 2013)
